# Assay: Human HepG2 cell viability assay in 384 well format
# Format: toxicity, cell-based
# Design: dose 125 nL, time 70.5 hour; cytotoxicity at 70.5 h: concentration not given beside the values
# Conditions: HepG2 cells, read-out: Inhibition
row,SMILES,cytotoxicity at 70.5 h [%]
1,COc1cccc2cc(CNC(=O)N3CCC(C(N)=O)CC3)oc12,-8.48
2,Cc1cc(C2CCCN2C(=O)COc2ccc(CC#N)cc2)no1 (stereo not given),-7.35
3,O=C(c1ccccn1)N1Cc2nccn2CC(CN2CCOCC2)C1 (stereo not given),-10.3
4,Cc1cc(C)n(CCCN(CCN2CCOCC2)Cc2ccco2)n1,-4.4
5,CC(C)COC1CCN(C(=O)c2ccc(C(F)(F)F)[nH]c2=O)CC1,-4.17
6,COc1ccccc1N1CCCC(Nc2ncccn2)C1=O (stereo not given),-3.79
7,Cc1ncsc1CN1CC[C@H]2OCC[C@@]2(C(=O)NC(C)C)C1,33.4
8,Cc1cc(-c2nccn2CCN2CCCCC2CO)oc1C (stereo not given),-5.85
9,Fc1ccccc1OCCc1cc(C2CCNC2)n[nH]1 (stereo not given),-4.09
10,CCn1cnnc1CNC(=O)NC(C)c1cccs1 (stereo not given),-14.5
11,Cc1cnccc1CN(C)C(=O)c1ccc(Cn2cnnn2)cc1,37.3
12,c1cc(-c2nnn3c2COC(CNCc2nccs2)C3)ccn1 (stereo not given),-0.24
13,O=c1[nH]c2cc(S(=O)(=O)N3CCC(c4ccsc4)CC3)ccc2o1,-5
14,CC(Sc1nnc(C2CC2)n1CC(N)=O)c1ccc(F)cc1F (stereo not given),-4.59
15,OC(CN(Cc1ccccc1)Cc1ccncc1)c1ccco1 (stereo not given),26
16,Cc1ccc(NC2CCN(C(=O)CCCn3ccnc3C)CC2)nn1,-7.72
17,Fc1cccnc1O[C@@H]1CN(Cc2ccccn2)[C@@H]2CCCO[C@@H]21,-10.3
18,Cc1nc(CN2CCC(CNC(=O)C3(C#N)CCCC3)CC2)oc1C,-5.03
19,CC(C(=O)NCc1ccc(F)cc1)N(C)CCN1CCOCC1 (stereo not given),24.4
20,Cc1ncnc2c1CCN(C(=O)Cc1cccc(F)c1)CC2,0.979
21,O=C(O)c1ccc2[nH]cc(CN3CCCC3)c2c1,6.43
22,O=C(O)Cc1cnc(-c2c(Cl)cccc2Cl)s1,-12.9
23,Cc1ccc(CC(=O)NCC(O)c2cc(Cl)cc(Cl)c2)cn1 (stereo not given),-3.94

row,SMILES,cytotoxicity at 70.5 h [%]
1,O=C1OCCN1CCSc1nnnn1C1CCOCC1,-17.6
2,Cc1ccc(-c2nc(CCNC(=O)NC3CCN(C)CC3)co2)cc1,-4.33
3,COCCN(CCOC)C(=O)c1sc(C)nc1C,-6.51
4,CC(C)CCC(C)NC(=O)Nc1ccccn1 (stereo not given),-2.67
5,CNc1cccc(C2CCCN(C(=O)c3ccncc3)C2)n1 (stereo not given),-2.97
6,COCc1noc(CN2CC(=O)N(C)c3ccccc3C2=O)n1,0.208
7,COCCCNC(=O)CN1CCCC1c1c(C)nn(C)c1Cl (stereo not given),27.1
8,Clc1snnc1CN1CCN(c2nccs2)CC1,-13.7
9,CC(C)C(C)(C#N)NC(=O)Cn1nnc(-c2cc3ccccc3o2)n1 (stereo not given),18.2
10,Cc1cc(C)n(CCNCc2cc(-c3ccc(F)cc3)c[nH]c2=O)n1,1.4
11,COCCC(=O)N1CC[C@@H](N2CCN(C)CC2)[C@@H]1Cc1ccccc1,-1.48
12,COCCO[C@@H]1CCN(C(=O)c2occc2C)[C@H]1Cc1cnn(C)c1,-90.5
13,Nc1ccnc(N2CCCC(CO)(Cc3cccc(Cl)c3)C2)n1 (stereo not given),6.17
14,O=C(NCCC1CCCCO1)c1coc(COc2ccc(F)cc2)n1 (stereo not given),-6.58
15,Cc1ccc(OCCC(=O)N2CCN(c3cnccn3)CC2)cc1C,-4.94
16,Cc1ccc(CN2CCn3c(C(=O)N(C)C)cnc3C2)s1,-20.4
17,Cc1noc([C@H]2COC[C@H]3CN(C(=O)Cc4ccccc4F)C[C@H]32)n1,-17
18,CN(C)CC1CN(Cc2csc(C3CCCC3)n2)CCO1 (stereo not given),-12.3
19,Cc1ccc(-c2nc(CN3CCc4cnc(C)nc4C3)no2)cc1,0.992
20,COC(=O)c1ccc(N2CCC(N(C)c3ccccc3)CC2)nn1,3.35
21,CO[C@H]1CCN(Cc2cccs2)[C@@H]2CN(Cc3ccncc3)C[C@H]12,-2.84
22,CO[C@@H]1CN(c2ccccc2)S(=O)(=O)[C@@]12CCN(CC1CC1)C2,-6.15
23,CC(C)c1nn(C)c(N(C)C)c1CNC1CCc2cc(F)ccc21 (stereo not given),5.83

row,SMILES,cytotoxicity at 70.5 h [%]
1,Cn1cc(CCNC(=O)CCc2ccc3c(c2)OCO3)cn1,-8.33
2,CC(C)c1cc(N(C)Cc2noc(C3CCCC3)n2)n2nccc2n1,-13.6
3,O=C(CCNc1ncccn1)NCCc1ccc(Cl)s1,-3.42
4,O=C(NCCOc1ncc(Cl)cc1Cl)c1ccoc1,21.7
5,CN(Cc1cn[nH]c1-c1ccc(F)cc1)C(=O)CCC1CC1,-13.8
6,Cc1cc(C(=O)Nc2cccn(Cc3ccc(F)cc3)c2=O)no1,0.798
7,Cn1c2ncccc2c(=O)n1CC(=O)Nc1ccc(F)c(F)c1,-3.2
8,Cc1cn(Cc2ccc(F)c(F)c2)nc1N,19.5
9,CCN1C(=O)[C@H]2CN(CC(C)C)C[C@H]2C12CCN(S(C)(=O)=O)CC2,-6.33
10,CCCOc1ccc(CNC(=O)N2CCC(C(N)=O)C2)cc1 (stereo not given),-0.602
11,CCOC(=O)CNC(=O)c1cc2n(n1)CCCO2,-11.8
12,CC(C)(C)n1cc(CNc2ccc(CNS(C)(=O)=O)cc2)cn1,-8.49
13,c1ccc(CCNCC2Cn3nncc3CO2)cc1 (stereo not given),-0.333
14,O=C(c1ccc(-n2cc(Br)cn2)cc1)N1CCN(c2cnccn2)CC1,-10
15,CC(C)CN1CCN(C(=O)NCc2cccnc2-n2cccn2)CC1,3.85
16,CN(C)CCN1CCO[C@H]2CN(C(=O)N(C)C)C[C@H]21,24.8
17,CC(C)c1cccc(NC(=O)N2CC(N(C)C)C2)c1,-0.462
18,O=C(Cc1cccc(F)c1)NCCNCc1cccnc1,-4.1
19,O=C(NCC1CCOCC1)[C@H]1C[C@@H]2CCN(c3nncs3)C[C@@H]2O1,-9.76
20,COCC(=O)N(C)Cc1nc(N2CCCC2)ncc1-c1ccncc1,13.6
21,NCC1CN(C(=O)Cn2ncc(N3CCCCC3)cc2=O)CCO1 (stereo not given),-2.61
22,CCOCC1CN(C(=O)c2ccoc2)Cc2cnn(C)c21 (stereo not given),13.6
23,COc1cc(C(=O)NS(=O)(=O)c2cncc(Br)c2)ccc1C,-19

row,SMILES,cytotoxicity at 70.5 h [%]
1,O=C1CC(C(=O)N2CCc3sccc3C2)CN1Cc1cccnc1 (stereo not given),2.13
2,COc1c(F)cccc1C(=O)N(C)Cc1nc(-c2ccccn2)no1,-6.48
3,CCNc1c(NC(=O)NC(C)C)c(=O)oc2ccccc12,-8.94
4,CCCN(CCO)S(=O)(=O)c1ccc2[nH]c(=O)[nH]c2c1,1.55
5,O=C(CCNC(=O)c1ccoc1)NCc1ccccc1F,-11
6,CC(=O)NCc1cccc(-n2ccnc2-c2cccc(C(=O)O)c2)c1,16.6
7,CCc1nn(C)c(Cl)c1CN1CCCC(c2cc(O)nc(C)n2)C1 (stereo not given),-0.921
8,CCC(C(=O)NC1(CN2CCOCC2)CCCC1)n1cccn1 (stereo not given),-2.56
9,CCc1nsc(NC2CCOC3(CCCC3)C2)n1 (stereo not given),1.42
10,CCc1ccc(CNC(=O)N2CCN(Cc3cc(C)on3)CC2)s1,-4.93
11,COc1ccccc1CC(=O)N1CCCC(c2nccn2CC(N)=O)C1 (stereo not given),23.1
12,CC(C)c1nnc2n1CCN(C(=O)c1ccc3c(c1)COC3)C2,-0.783
13,Cc1cc(C(=O)NCCCn2nccc2C2CC2)c(=O)[nH]c1C,-14.7
14,O=C(CCc1ccccc1)C1CCCN(C(=O)c2ncc(F)cc2F)C1 (stereo not given),-3.9
15,O=C(CNCCn1cccn1)NCC1(c2ccccc2)CCCC1,0.609
16,O=C1COC2(CCN(CC3CCOCC3)CC2)CN1Cc1ccccn1,-0.458
17,CCc1ccc(C(=O)NC2CCN(c3cnn(C)c3)C2=O)o1 (stereo not given),-9
18,CCc1nc(C2CCCN(C(=O)c3ccc(F)cc3)C2)no1 (stereo not given),-0.043
19,CNCc1n[nH]c(=O)n1-c1cccc(Cl)c1Cl,-8.26
20,CCOCC(O)CN1CCN(C(=O)CC(C)(C)C)CC1 (stereo not given),-18.5
21,CC(C)c1ncc(-c2cc(C3CCC3)nc(N)c2C#N)cn1,-8.31
22,COCCOCCC(=O)N1CCC(c2ccccc2C)C1 (stereo not given),-4.21
23,CC(C)C(=O)N1CCCC2(CC(C(=O)NCc3cccnc3)=NO2)C1 (stereo not given),-2.66

row,SMILES,cytotoxicity at 70.5 h [%]
1,CN1C(=O)CO[C@H](c2ccc(NC(=O)NC(C)(C)C)cc2)[C@H]1CO,-0.339
2,Cc1ccc(CN2CC[C@H]3[C@H]2CCN3S(=O)(=O)C2CC2)cc1,-6.33
3,Cc1ccc(N2CC[C@H]3CN(C(=O)c4ccn(C)n4)C[C@H]3C2)nn1,-7.56
4,Cc1cccc(NC(=O)c2ccc(-n3cncn3)nn2)n1,-1.44
5,OCCn1nccc1C1CCN(Cc2nc(C3CC3)no2)CC1,-1.33
6,CCN(C1CCN(C(=O)c2cccc(Cl)c2)CC1)S(C)(=O)=O,-6.65
7,CCCC1c2cccn2CCN1C(=O)c1cc(CC)no1 (stereo not given),-2.22
8,CN(C)C1(CNc2nccc(-c3cnn(C)c3)n2)CCSC1 (stereo not given),-0.261
9,Cc1nccn1-c1cc(CNC(=O)c2ccccn2)ccn1,-4.56
10,Cn1ncnc1CNC(=O)N(CCCO)C1CCc2ccccc21 (stereo not given),-6.34
11,CCN1CCCC1CNCc1cc2ccccc2[nH]c1=O (stereo not given),-5.02
12,c1cc(CN2C[C@@H]3OCCN(CC4CCCO4)[C@@H]3C2)ccn1 (stereo not given in full),8.75
13,CCc1ccc(C(=O)N2CCN(CCO)CC2)o1,-1.18
14,CC(Nc1nc2c(cnn2C)c(=O)[nH]1)c1ccc(F)cc1 (stereo not given),-2.55
15,Cn1ccnc1CN(CCO)C(=O)c1nc2ccccc2s1,2.62
16,CC(=O)N(C)CC(=O)NCC1CCN(c2cc(Cl)ccc2C)C1 (stereo not given),2.11
17,CS(=O)(=O)CCCOc1cccc(-n2ccnc2)c1,-2.41
18,COc1ccc([C@@H]2C[C@H](NC(C)=O)C[C@H](Cc3ccccc3)O2)cn1,-6.79
19,CC(O)CN1CCN(C(=O)Cc2ccccc2Cl)CC1 (stereo not given),-5.1
20,O=C(CN1CCN(C(=O)c2cccc(-c3ccoc3)c2)CC1)C1CC1,-5.66
21,Cc1cc(C(=O)N2CCCC2c2noc(C)n2)[nH]n1 (stereo not given),1.6
22,CC(C)CCN1CCN(Cc2nc(C(C)C)no2)CC1,-0.333
23,COCc1nccc(C2CCCN(Cc3cccc(C#N)c3)C2)n1 (stereo not given),-9.48
